Measured values as given in the NIST ThermoML archive (doi:10.1016/j.fluid.2015.10.026).
Numbers after ± are expanded uncertainties.

Settings: Brillouin light scattering

CCC(C)(C)OC [2-methoxy-2-methylbutane]
Settings | speed of sound [m/s]
443.15 K, 2500 kPa, Liquid | 537.57 ± 2.9
443.15 K, 4000 kPa, Liquid | 561.49 ± 3
443.15 K, 5500 kPa, Liquid | 584.45 ± 3.1
443.15 K, 7000 kPa, Liquid | 606.46 ± 3.3
443.15 K, 8500 kPa, Liquid | 627.51 ± 3.4
443.15 K, 10000 kPa, Liquid | 647.61 ± 3.5
453.15 K, 660 kPa, Liquid | 468.81 ± 2.6
453.15 K, 2500 kPa, Liquid | 495.6 ± 2.7
453.15 K, 4000 kPa, Liquid | 520.74 ± 2.8
453.15 K, 5500 kPa, Liquid | 544.94 ± 3
453.15 K, 7000 kPa, Liquid | 568.2 ± 3.1
453.15 K, 8500 kPa, Liquid | 590.53 ± 3.2
453.15 K, 10000 kPa, Liquid | 611.92 ± 3.3
463.15 K, 820 kPa, Gas | 194.03 ± 1.8
463.15 K, 820 kPa, Liquid | 424.99 ± 2.5
463.15 K, 2500 kPa, Liquid | 453.48 ± 2.5
463.15 K, 4000 kPa, Liquid | 479.86 ± 2.7
463.15 K, 5500 kPa, Liquid | 505.34 ± 2.8
463.15 K, 7000 kPa, Liquid | 529.91 ± 3
463.15 K, 8500 kPa, Liquid | 553.58 ± 3.1
463.15 K, 10000 kPa, Liquid | 576.34 ± 3.2
473.15 K, 1010 kPa, Gas | 187.27 ± 1.4
473.15 K, 1010 kPa, Liquid | 380.39 ± 2.3
473.15 K, 4000 kPa, Liquid | 438.87 ± 2.5
473.15 K, 5500 kPa, Liquid | 465.66 ± 2.6
473.15 K, 7000 kPa, Liquid | 491.59 ± 2.9
473.15 K, 8500 kPa, Liquid | 516.66 ± 2.9
473.15 K, 10000 kPa, Liquid | 540.87 ± 3
483.15 K, 1240 kPa, Gas | 179.96 ± 1.7
483.15 K, 1240 kPa, Liquid | 334.95 ± 2.1
483.15 K, 4000 kPa, Liquid | 397.75 ± 2.3
483.15 K, 5500 kPa, Liquid | 425.9 ± 2.4
488.15 K, 1370 kPa, Gas | 175.42 ± 2
488.15 K, 1370 kPa, Liquid | 311.9 ± 2
493.15 K, 1520 kPa, Gas | 169.9 ± 4
493.15 K, 1520 kPa, Liquid | 288.63 ± 1.9
493.15 K, 4000 kPa, Liquid | 356.51 ± 2.1
493.15 K, 5500 kPa, Liquid | 386.06 ± 2.3
498.15 K, 1680 kPa, Gas | 163.13 ± 2.7
498.15 K, 1680 kPa, Liquid | 265.12 ± 1.8
498.15 K, 4000 kPa, Liquid | 335.85 ± 2
498.15 K, 5500 kPa, Liquid | 366.12 ± 2.2
503.15 K, 1860 kPa, Gas | 154.8 ± 3
503.15 K, 1860 kPa, Liquid | 241.38 ± 1.7
503.15 K, 4000 kPa, Liquid | 315.16 ± 2
503.15 K, 5500 kPa, Liquid | 346.15 ± 2.1
508.15 K, 2060 kPa, Gas | 144.62 ± 6.6
508.15 K, 2060 kPa, Liquid | 217.4 ± 1.6
508.15 K, 4000 kPa, Liquid | 294.43 ± 1.9
508.15 K, 5500 kPa, Liquid | 326.16 ± 2
513.15 K, 2270 kPa, Gas | 132.28 ± 3.9
513.15 K, 2270 kPa, Liquid | 193.18 ± 1.5
513.15 K, 4000 kPa, Liquid | 273.68 ± 1.8
513.15 K, 5500 kPa, Liquid | 306.15 ± 1.9
518.15 K, 2500 kPa, Gas | 117.47 ± 3
518.15 K, 2500 kPa, Liquid | 168.7 ± 1.4
518.15 K, 4000 kPa, Liquid | 252.89 ± 1.8
518.15 K, 5500 kPa, Liquid | 286.12 ± 1.9
523.15 K, 2760 kPa, Gas | 99.85 ± 3
523.15 K, 2760 kPa, Liquid | 143.98 ± 1.3
523.15 K, 4000 kPa, Liquid | 232.08 ± 1.7
523.15 K, 5500 kPa, Liquid | 266.07 ± 1.8
537.15 K, 5000 kPa, Fluid (supercritical or subcritical phases) | 228.75 ± 2.2
537.15 K, 6000 kPa, Fluid (supercritical or subcritical phases) | 279.45 ± 3.3
538.63 K, 4000 kPa, Fluid (supercritical or subcritical phases) | 166.74 ± 2
540.07 K, 7000 kPa, Fluid (supercritical or subcritical phases) | 308.01 ± 3.1
547.15 K, 5000 kPa, Fluid (supercritical or subcritical phases) | 173.14 ± 2.4
547.15 K, 6000 kPa, Fluid (supercritical or subcritical phases) | 231.15 ± 3.5
548.05 K, 7000 kPa, Fluid (supercritical or subcritical phases) | 273.71 ± 3.4
548.23 K, 4000 kPa, Fluid (supercritical or subcritical phases) | 93.78 ± 1.8
557.15 K, 5000 kPa, Fluid (supercritical or subcritical phases) | 137.45 ± 1.6
557.15 K, 6000 kPa, Fluid (supercritical or subcritical phases) | 185.53 ± 3.4
557.95 K, 4000 kPa, Fluid (supercritical or subcritical phases) | 114.59 ± 1.4
558.89 K, 7000 kPa, Fluid (supercritical or subcritical phases) | 235.39 ± 3.7
567.15 K, 5000 kPa, Fluid (supercritical or subcritical phases) | 122.01 ± 1.2
567.15 K, 6000 kPa, Fluid (supercritical or subcritical phases) | 152.32 ± 2.7
567.35 K, 4000 kPa, Fluid (supercritical or subcritical phases) | 139.87 ± 1.3
568.4 K, 7000 kPa, Fluid (supercritical or subcritical phases) | 200.04 ± 3.6
577 K, 5000 kPa, Fluid (supercritical or subcritical phases) | 139.01 ± 1.2
577 K, 6000 kPa, Fluid (supercritical or subcritical phases) | 140.84 ± 1.7
577.42 K, 7000 kPa, Fluid (supercritical or subcritical phases) | 176.29 ± 2.6
577.5 K, 4000 kPa, Fluid (supercritical or subcritical phases) | 156.64 ± 1.4
586.07 K, 7000 kPa, Fluid (supercritical or subcritical phases) | 158.23 ± 1.7
586.09 K, 6000 kPa, Fluid (supercritical or subcritical phases) | 146.23 ± 1.2
586.58 K, 4000 kPa, Fluid (supercritical or subcritical phases) | 172.49 ± 1.4
586.8 K, 5000 kPa, Fluid (supercritical or subcritical phases) | 155.55 ± 1.3
597.62 K, 7000 kPa, Fluid (supercritical or subcritical phases) | 156.64 ± 1.3
598.22 K, 6000 kPa, Fluid (supercritical or subcritical phases) | 159.43 ± 1.3
599.01 K, 5000 kPa, Fluid (supercritical or subcritical phases) | 172.16 ± 1.4
599.67 K, 4000 kPa, Fluid (supercritical or subcritical phases) | 188.97 ± 1.5
607.67 K, 7000 kPa, Fluid (supercritical or subcritical phases) | 165.36 ± 1.4
608.42 K, 6000 kPa, Fluid (supercritical or subcritical phases) | 174.49 ± 1.5
609.14 K, 5000 kPa, Fluid (supercritical or subcritical phases) | 187.44 ± 1.4
610.53 K, 4000 kPa, Fluid (supercritical or subcritical phases) | 204.31 ± 1.5
616.46 K, 7000 kPa, Fluid (supercritical or subcritical phases) | 175.98 ± 1.5
617.13 K, 6000 kPa, Fluid (supercritical or subcritical phases) | 187.48 ± 1.5
618.08 K, 5000 kPa, Fluid (supercritical or subcritical phases) | 199.99 ± 1.5
618.29 K, 4000 kPa, Fluid (supercritical or subcritical phases) | 213.66 ± 1.5
626.75 K, 7000 kPa, Fluid (supercritical or subcritical phases) | 188.95 ± 1.5
627.35 K, 6000 kPa, Fluid (supercritical or subcritical phases) | 199.55 ± 1.5
628.15 K, 5000 kPa, Fluid (supercritical or subcritical phases) | 210.83 ± 1.5
629.14 K, 4000 kPa, Fluid (supercritical or subcritical phases) | 222.93 ± 1.5
636.88 K, 6000 kPa, Fluid (supercritical or subcritical phases) | 207.42 ± 1.5
636.88 K, 7000 kPa, Fluid (supercritical or subcritical phases) | 199.92 ± 1.5
638.41 K, 5000 kPa, Fluid (supercritical or subcritical phases) | 218.7 ± 1.5
639.77 K, 4000 kPa, Fluid (supercritical or subcritical phases) | 229.85 ± 1.6
645.57 K, 5000 kPa, Fluid (supercritical or subcritical phases) | 222.56 ± 1.5
645.57 K, 6000 kPa, Fluid (supercritical or subcritical phases) | 213.28 ± 1.6
645.57 K, 7000 kPa, Fluid (supercritical or subcritical phases) | 204.49 ± 1.5
646.51 K, 4000 kPa, Fluid (supercritical or subcritical phases) | 233.5 ± 1.6
656.29 K, 5000 kPa, Fluid (supercritical or subcritical phases) | 226.62 ± 1.5
656.29 K, 7000 kPa, Fluid (supercritical or subcritical phases) | 208.95 ± 1.6
656.31 K, 6000 kPa, Fluid (supercritical or subcritical phases) | 217.14 ± 1.6
657.59 K, 4000 kPa, Fluid (supercritical or subcritical phases) | 237.14 ± 1.6
669.94 K, 5000 kPa, Fluid (supercritical or subcritical phases) | 230.37 ± 1.6
669.94 K, 7000 kPa, Fluid (supercritical or subcritical phases) | 211.48 ± 1.5
669.98 K, 6000 kPa, Fluid (supercritical or subcritical phases) | 220.01 ± 1.6
670.97 K, 4000 kPa, Fluid (supercritical or subcritical phases) | 240.91 ± 1.6
680.25 K, 5000 kPa, Fluid (supercritical or subcritical phases) | 233.53 ± 1.6
680.27 K, 4000 kPa, Fluid (supercritical or subcritical phases) | 242.88 ± 1.6
680.27 K, 7000 kPa, Fluid (supercritical or subcritical phases) | 215.49 ± 1.6
680.32 K, 6000 kPa, Fluid (supercritical or subcritical phases) | 223.86 ± 1.6
